Experimental data taken from US20220310200A1, “METHODS FOR IDENTIFYING AND USING DISEASE-ASSOCIATED ANTIGENS” (KIROMIC BIOPHARMA, INC., priority 2019, published 2022).
No end group written: not given here.

Test system: Autologous DCs pulsed with the IsoMSLN peptide
Assay: DC-T-cell co-culture immunogenicity, 4-hour Calcein-AM-release cytotoxicity assay
Type: cell-based
Conditions: E/T ratio 10:1 and 5:1; peripheral blood mononuclear cells of a healthy individual; control unrelated HIV peptide; FIG. 5
Procedure: The peptide unique to the isoform variant (i.e., PQAPRRPL (SEQ ID NO: 19)) was then tested for immunogenicity using a dendritic cell (DC)- T-cell co-culture system as previously described (Chiriva-Internati et al. Blood. 2002 Aug. 1;100(3):961-5). A standard 4-hour Calcein-AM-release assay was performed to determine the cytotoxic activity of the IsoMSLN peptide stimulated T cells. Autologous DCs pulsed with the IsoMSLN peptide or with an unrelated peptide (derived from HIV), were used as target cells (at an effector-target cell [E/T] ratio of 10:1 and 5:1).

In the case of PQAPRRPL [PQAPRRPL], the “immunogenicity (cytotoxic activity of peptide stimulated T cells, percent specific killing)” value is reported as “immunogenic”.
